Among the data in BindingDB's records for doi:10.1124/jpet.102.040162 (Sanofi-SynthÉLabo Recherche, 2002) are Ki values, retold here.

In general, Ki refers to a dissociation constant, usually derived from enzyme kinetics or from competition with a known ligand.

Assay [1] addresses T1, Neuromedin-K receptor (Homo sapiens, UniProt P29371).
T1 sequence (P29371 whole entry): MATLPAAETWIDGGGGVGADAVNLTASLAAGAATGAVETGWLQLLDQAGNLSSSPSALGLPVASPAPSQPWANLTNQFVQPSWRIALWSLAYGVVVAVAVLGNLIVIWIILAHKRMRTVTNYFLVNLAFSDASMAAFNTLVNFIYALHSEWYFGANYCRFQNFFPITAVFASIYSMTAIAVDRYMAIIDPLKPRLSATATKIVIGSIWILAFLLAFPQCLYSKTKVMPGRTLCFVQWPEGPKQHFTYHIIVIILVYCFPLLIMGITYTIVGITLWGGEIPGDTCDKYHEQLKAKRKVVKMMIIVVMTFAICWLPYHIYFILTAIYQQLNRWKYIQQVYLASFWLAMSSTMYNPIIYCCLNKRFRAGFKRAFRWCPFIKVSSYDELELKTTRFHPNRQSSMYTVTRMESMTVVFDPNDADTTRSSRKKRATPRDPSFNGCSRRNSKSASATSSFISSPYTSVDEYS

Assay [2] addresses T2, Neuromedin-K receptor (Meriones unguiculatus, UniProt Q2YHR0).
T2 sequence (Q2YHR0 whole entry): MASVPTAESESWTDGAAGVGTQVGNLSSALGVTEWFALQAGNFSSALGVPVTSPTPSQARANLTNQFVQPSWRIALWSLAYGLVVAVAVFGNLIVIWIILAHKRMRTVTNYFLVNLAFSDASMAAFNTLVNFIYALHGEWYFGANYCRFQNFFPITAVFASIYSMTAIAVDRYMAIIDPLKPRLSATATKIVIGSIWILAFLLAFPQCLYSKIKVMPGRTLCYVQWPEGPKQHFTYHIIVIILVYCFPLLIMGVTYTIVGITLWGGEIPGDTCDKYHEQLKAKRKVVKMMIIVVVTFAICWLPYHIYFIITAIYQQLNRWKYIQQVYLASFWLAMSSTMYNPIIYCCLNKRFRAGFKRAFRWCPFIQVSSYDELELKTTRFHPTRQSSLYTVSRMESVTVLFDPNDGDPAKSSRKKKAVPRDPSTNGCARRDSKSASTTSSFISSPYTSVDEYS

Assay [3] deals with T3, Neuromedin-K receptor (Cavia porcellus, UniProt P30098).
T3 sequence (P30098 whole entry): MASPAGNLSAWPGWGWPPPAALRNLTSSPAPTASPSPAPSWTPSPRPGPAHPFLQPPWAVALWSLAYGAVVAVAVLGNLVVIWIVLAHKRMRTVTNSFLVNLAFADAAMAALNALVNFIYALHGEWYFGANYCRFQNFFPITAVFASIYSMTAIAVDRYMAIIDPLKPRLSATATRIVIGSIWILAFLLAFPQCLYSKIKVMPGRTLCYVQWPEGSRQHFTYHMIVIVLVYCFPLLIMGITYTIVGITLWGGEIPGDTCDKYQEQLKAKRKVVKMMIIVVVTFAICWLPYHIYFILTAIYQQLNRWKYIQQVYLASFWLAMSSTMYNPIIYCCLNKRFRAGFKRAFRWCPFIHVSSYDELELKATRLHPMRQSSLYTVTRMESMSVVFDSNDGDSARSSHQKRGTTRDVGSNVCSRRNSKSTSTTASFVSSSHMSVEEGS

Assay [4] has as its target T4, Neuromedin-K receptor (Mus musculus, UniProt P47937).
T4 sequence (P47937 whole entry): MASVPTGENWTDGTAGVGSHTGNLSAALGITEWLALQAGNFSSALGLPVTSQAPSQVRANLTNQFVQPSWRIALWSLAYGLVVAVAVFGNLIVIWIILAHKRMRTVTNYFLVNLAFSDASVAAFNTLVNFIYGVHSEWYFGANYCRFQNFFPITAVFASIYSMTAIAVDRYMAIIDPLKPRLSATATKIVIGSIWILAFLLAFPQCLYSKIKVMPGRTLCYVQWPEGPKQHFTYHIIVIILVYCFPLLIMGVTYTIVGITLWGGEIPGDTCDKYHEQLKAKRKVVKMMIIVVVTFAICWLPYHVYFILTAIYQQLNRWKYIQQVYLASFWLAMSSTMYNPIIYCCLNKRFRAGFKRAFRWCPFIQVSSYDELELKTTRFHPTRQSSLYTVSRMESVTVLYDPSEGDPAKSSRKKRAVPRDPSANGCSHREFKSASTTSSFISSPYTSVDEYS

The target in assay [5] is T5, Substance-K receptor (Cavia porcellus, UniProt Q64077).
T5 sequence (Q64077 whole entry): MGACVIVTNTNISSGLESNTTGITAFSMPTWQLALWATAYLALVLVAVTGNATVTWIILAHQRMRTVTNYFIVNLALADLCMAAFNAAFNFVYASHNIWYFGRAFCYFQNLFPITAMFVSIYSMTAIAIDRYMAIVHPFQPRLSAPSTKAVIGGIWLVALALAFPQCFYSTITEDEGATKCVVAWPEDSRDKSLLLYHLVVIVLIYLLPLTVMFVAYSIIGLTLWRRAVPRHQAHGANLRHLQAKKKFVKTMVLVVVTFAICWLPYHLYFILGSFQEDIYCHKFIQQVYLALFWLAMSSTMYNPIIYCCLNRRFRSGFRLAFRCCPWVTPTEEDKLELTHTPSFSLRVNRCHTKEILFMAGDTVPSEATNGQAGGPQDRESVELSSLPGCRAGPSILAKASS

Assay [6] has as its target Substance-P receptor (Rattus norvegicus, UniProt P14600).
In assay [7] the target is T6, Substance-K receptor (Homo sapiens, UniProt P21452).
T6 sequence (P21452 whole entry): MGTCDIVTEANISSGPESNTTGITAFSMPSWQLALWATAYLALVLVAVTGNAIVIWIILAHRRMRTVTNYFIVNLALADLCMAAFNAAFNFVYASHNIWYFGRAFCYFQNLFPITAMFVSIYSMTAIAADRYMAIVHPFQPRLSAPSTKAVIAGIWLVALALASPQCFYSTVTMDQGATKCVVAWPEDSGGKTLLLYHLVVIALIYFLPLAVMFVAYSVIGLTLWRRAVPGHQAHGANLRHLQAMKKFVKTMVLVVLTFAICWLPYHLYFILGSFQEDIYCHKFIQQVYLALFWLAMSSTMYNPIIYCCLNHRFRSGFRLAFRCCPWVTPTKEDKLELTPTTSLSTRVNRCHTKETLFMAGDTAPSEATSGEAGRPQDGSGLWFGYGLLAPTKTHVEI

In assay [8] the target is Substance-P receptor (Cavia porcellus, UniProt P30547).
Assay [9] has as its target T7, Substance-K receptor (Rattus norvegicus, UniProt P16610).
T7 sequence (P16610 whole entry): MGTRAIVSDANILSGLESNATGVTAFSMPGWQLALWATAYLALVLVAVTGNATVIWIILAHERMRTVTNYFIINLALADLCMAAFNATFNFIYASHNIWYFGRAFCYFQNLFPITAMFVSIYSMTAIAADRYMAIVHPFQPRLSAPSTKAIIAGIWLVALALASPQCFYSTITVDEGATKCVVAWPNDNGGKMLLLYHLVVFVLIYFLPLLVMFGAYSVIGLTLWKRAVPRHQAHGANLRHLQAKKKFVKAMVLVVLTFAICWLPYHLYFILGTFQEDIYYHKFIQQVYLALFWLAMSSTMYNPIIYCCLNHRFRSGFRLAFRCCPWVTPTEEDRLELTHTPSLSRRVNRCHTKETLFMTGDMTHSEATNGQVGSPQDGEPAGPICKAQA

Where “and” joins values, the source holds several entries; their conditions need not be identical. Equal entries are not always repeated. Square brackets hold non-standard residues; d marks the D form. Peptide text beside a SMILES is read from it. NMeF = CN[C@@H](Cc1ccccc1)C(=O)O

Substance-P receptor (Rattus norvegicus, UniProt P14600), sequence (P14600 whole entry): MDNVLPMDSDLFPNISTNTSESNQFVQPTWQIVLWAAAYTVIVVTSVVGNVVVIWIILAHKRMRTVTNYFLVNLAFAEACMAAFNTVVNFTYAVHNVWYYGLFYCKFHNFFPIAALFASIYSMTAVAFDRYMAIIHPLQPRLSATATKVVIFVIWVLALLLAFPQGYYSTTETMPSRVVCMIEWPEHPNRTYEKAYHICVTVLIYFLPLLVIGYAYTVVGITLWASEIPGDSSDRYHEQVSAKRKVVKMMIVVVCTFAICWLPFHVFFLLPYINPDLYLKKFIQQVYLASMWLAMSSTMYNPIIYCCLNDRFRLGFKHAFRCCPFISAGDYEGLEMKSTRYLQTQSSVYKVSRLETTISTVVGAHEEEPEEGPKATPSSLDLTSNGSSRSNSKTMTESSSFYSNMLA
Substance-P receptor (Cavia porcellus, UniProt P30547), sequence (P30547 whole entry): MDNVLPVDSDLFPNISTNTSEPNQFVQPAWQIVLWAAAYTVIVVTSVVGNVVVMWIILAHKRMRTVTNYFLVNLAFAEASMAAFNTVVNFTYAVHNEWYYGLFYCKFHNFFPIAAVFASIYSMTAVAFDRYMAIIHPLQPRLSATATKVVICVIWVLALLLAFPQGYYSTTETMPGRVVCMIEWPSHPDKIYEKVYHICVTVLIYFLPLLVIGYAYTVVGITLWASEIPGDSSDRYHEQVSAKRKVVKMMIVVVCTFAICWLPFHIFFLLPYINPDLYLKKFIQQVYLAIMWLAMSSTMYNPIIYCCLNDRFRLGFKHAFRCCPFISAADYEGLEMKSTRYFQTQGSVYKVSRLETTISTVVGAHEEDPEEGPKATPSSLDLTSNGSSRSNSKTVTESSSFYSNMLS

As for `CSCC[C@H](NC(=O)[C@H](CC(C)C)NC(=O)CNC(=O)[C@H](Cc1ccccc1)N(C)C(=O)[C@H](Cc1ccccc1)NC(=O)[C@H](Cc1ccccc1)NC(=O)[C@H](CC(=O)O)NC(=O)[C@H](Cc1cnc[nH]1)NC(=O)[C@H](CCSC)NC(=O)[C@@H](N)CC(=O)O)C(N)=O` [NKB [MePhe7]] (H-DMHDFF[NMeF]GLM-NH2), the Ki was found to be 0.34 nM in assay [1], 0.16 nM in assay [2], 0.43 nM in assay [3] and 0.053 nM in [4].
Take `CSCC[C@H](NC(=O)[C@H](CC(C)C)NC(=O)CNC(=O)[C@@H](NC(=O)[C@H](Cc1ccccc1)NC(=O)[C@H](CO)NC(=O)[C@H](CC(=O)O)NC(=O)[C@@H](NC(=O)[C@H](CCCCN)NC(=O)[C@@H](N)Cc1cnc[nH]1)[C@@H](C)O)C(C)C)C(N)=O` [Neurokinin alpha]: in assay [5], the affinity, expressed as Ki, was 2.3 nM.
As to `CC(C)(C(N)=O)C1CCN(CCC2(c3ccc(Cl)c(Cl)c3)CN(C(=O)Cc3cc(C(F)(F)F)cc(C(F)(F)F)c3)CCO2)CC1` (centres undefined) [SSR240600], the Ki was 1.07 nM and 1.15 nM in assay [6]; 24 nM in assay [7]; 206 nM in assay [1]; 0.23 nM in assay [8]; 71 nM in [5]; 34 nM in [9]. The inhibition constant (Ki) in assay [2] was 544 nM; in assay [3], 21 nM; in assay [4] it was greater than 10000 nM.
